Key:
[1] = target: T1, Arabidopsis BIN2 kinase (Uniprot Q39011) (Arabidopsis thaliana, UniProt Q39011); test: In vitro assay for inhibition of plant GSK3/Shaggy-like kinase activity (ADP-Glo); format: biochemical; details: compounds at 5 µM; 5 µM ATP; myelin basic protein substrate; 1 h at 20°C; triplicate; read-out: inhibited the activity of His6-BIN2 relative to the solvent vehicle control
T1 construct: made in house; host or cells: E. coli BL21
T1 sequence (Q39011 1-380): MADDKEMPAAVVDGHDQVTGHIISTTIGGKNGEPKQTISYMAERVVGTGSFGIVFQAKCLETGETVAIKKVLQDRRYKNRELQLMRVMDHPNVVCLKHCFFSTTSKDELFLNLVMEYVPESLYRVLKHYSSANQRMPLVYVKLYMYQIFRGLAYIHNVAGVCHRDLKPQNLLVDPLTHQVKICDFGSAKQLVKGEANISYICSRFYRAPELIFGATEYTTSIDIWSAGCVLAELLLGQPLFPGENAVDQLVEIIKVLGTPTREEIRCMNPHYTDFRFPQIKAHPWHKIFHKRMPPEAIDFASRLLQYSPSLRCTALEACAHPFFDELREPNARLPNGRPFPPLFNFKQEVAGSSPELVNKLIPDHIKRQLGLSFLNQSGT
Method: Arabidopsis BIN2 kinase (Uniprot Q39011) was produced in E.coli BL21 as an N-terminal hexahistidine fusion protein. In vitro kinase assays were performed by incubating 50 ng His6-BIN2 protein with 5 µg myelin basic protein (Sigma-Aldrich) as substrate and 5 µM ATP as co-substrate in reaction buffer consisting of 40 mM Tris-HCl, 20 mM MgCl2 and 0.1mg/mL bovine serum albumin in a final reaction volume of 50 µl. Enzyme activity was assessed in the absence and presence of compounds (described in Tables A and B) at 5 µM by measuring the level of ADP produced after incubation for 1 h at 20°C using an enzyme-coupled bioluminescent assay (ADP-Glo, Promega Corp.). The experiment was performed in triplicate.

[2] = system: French beans (Phaseolus vulgaris) of the variety Fulvio; test: Bean assay: elongation of the petiole of the second leaf; format: in vivo; details: five micro litres of test compound pipetted to the wound at the base of the second internode; measured fourteen days after application
Method: (§1) Two bioassays were developed in order to assay the activity of the compounds of the present invention. In the first assay, the activity of the compound was quantified in beans based on its effect on the elongation of the petiole of the second leaf. In the second assay, the compound's effect on the root growth of wheat was determined.
French beans (Phaseolus vulgaris) of the variety Fulvio were sown in 0.5 litres pots in a sandy loam without additional fertilizer. Plants grew under greenhouse conditions at 22/18°C (day/night) and 80% relative humility; light was supplemented […] 25 kLux. Plants were treated with test compounds eleven days after sowing, when the second internode was 2-5 mm long. Before application, the compounds were each dissolved in dimethyl sulfoxide and diluted in a mixture of lanolin-oil and acetone (1:2 ratio by volume). Five micro litres of the test compound was pipetted to the wound that was created after abscising the bract leaf from the base of the second internode. Fourteen days after application, the length of the petiole of the second leaf (measured from the base of the petiole to the base of the first leaflet) was determined in order to quantify the activity of the compounds.

[3] = system: Wheat (Triticum aestivum) seeds of the variety Arina; test: Wheat assay: plant (root and shoot) area and curliness of the roots; format: in vivo; details: seeds sown in pouches with compound solution; twelve days after sowing/application
Method: as §1
The test compounds were dissolved in small volumes of dimethyl sulfoxide and diluted to the appropriate concentration with water. Wheat (Triticum aestivum) seeds of the variety Arina were sown in pouches (14.7 × 13.2 cm) containing 10 mL of the appropriate compound solution. The pouches were stored at 17 °C for three days to enable the seeds to germinate. Plants were then stored at 5°C. Twelve days after sowing/application, plants were removed from the pouches and scanned. The effect of the compounds was quantified by determining plant (root and shoot) area and curliness of the roots (curliness is an indicator of brassinosteroid-type activity).

| Compound | inhibition at 5 µM [1] [%] | increase of the length of the petiole of the second leaf [2] [%] | curliness of the roots (indicator of brassinosteroid-type activity) [3] | reduction of the plant (root and shoot) area [3] [%] |
| --- | --- | --- | --- | --- |
| COC(=O)CCC(=O)Nc1cc(I)ccn1 [Compound A6] | ≥ 20 | – | – | – |
| N#Cc1ccnc(NC(=O)CCC(=O)O)c1 [Compound A7, 4-[(4-cyano-2-pyridyl)amino]-4-oxo-butanoic acid] | ≥ 20 | – | – | – |
| COC(=O)CCC(=O)Nc1cc(C(F)(F)F)ccn1 [Compound A2] | ≥ 20 | – | – | – |
| COC(=O)CCC(=O)Nc1cc([N+](=O)[O-])ccn1 [Compound A5] | ≥ 20 | – | – | – |
| COC(=O)CCC(=O)Nc1cc(Cl)ccn1 [Compound A1, methyl 4-[(4-chloro-2-pyridyl)amino]-4-oxo-butanoate] | ≥ 20 | ≥ 10 | – | – |
| COC(=O)CCC(=O)Nc1cc(C#N)ccn1 [Compound A3, methyl 4-[(4-cyano-2-pyridyl)amino]-4-oxo-butanoate] | ≥ 20 | – | – | – |

The next lines start with results.

| inhibition at 5 µM [1] [%] | Compound | increase of the length of the petiole of the second leaf [2] [%] | curliness of the roots (indicator of brassinosteroid-type activity) [3] | reduction of the plant (root and shoot) area [3] [%] |
| --- | --- | --- | --- | --- |
| ≥ 20 | O=C(O)CCC(=O)Nc1cc(C(F)(F)F)ccn1 [Compound A8] | – | – | – |
| ≥ 20 | O=C1CCC(=O)N1c1cc(C(F)(F)F)ccn1 [Compound B1, 1-[4-(trifluoromethyl)-2-pyridyl]pyrrolidine-2,5-dione] | ≥ 10 | curly root phenotype | ≥ 5 |
| ≥ 20 | COC(=O)CCC(=O)Nc1cc(Br)ccn1 [Compound A9] | – | – | – |

Source: patent EP2762468A1, “2-aminopyridine derivatives as plant growth regulating compounds” (Syngenta Participations AG, priority 2013, dated 2014)
